Measured values published in PMC7356761 (Molecules, 2020).
“And” between values parts separate entries of the source, which are not always exact repeats. Equal values may be shown once. “Also recorded” adds a separate entry of the source.

How the values were obtained:
[1] = In vitro stability in murine plasma; type: in vitro ADME, mouse; conditions: 37 °C
Method: 3.7. In Vitro Stability Experiments
The plasma was prepared by centrifugation of murine blood at 4 °C for 20 min at […]. The reaction was started by the addition of [^125I]10 (20 μL) in the plasma (180 µL). The mixture was incubated in a shaker at 300 rpm at 37 °C, which was carried out three times. Samples (100 µL) were taken at 0, 1 and 24 h and 100 µL acetonitrile, divided into five portions, was added for deproteinization of the plasma. The samples were left in the fridge for 15 min and then centrifuged at 4 °C for 15 min at […]. The supernatant was filtered through a pore size of 0.45 μm, then analyzed by RP-HPLC with a mobile phase gradient system water (A) and methanol (B), B: 70–100%, for 20 min using a Cosmosil® 5C18 MSII (4.6 ID × 150 mm) column at a flow rate of 1 mL/min. The column temperature was maintained at 40 °C. Radioactivity was measured by an auto well gamma counter.

[2] = Partition coefficient, shake-flask n-octanol/phosphate buffer; type: physicochemical; conditions: n-octanol/0.1 M phosphate buffer pH 7.4, shake-flask
Method: 3.6. Determination of Partition Coefficient
The partition coefficient of [^125I]10 was measured, as previously reported with a slight modification. Briefly, [^125I]10 was added to the mixture of each 3 mL of n-octanol and 0.1 M phosphate buffer (pH 7.4) in a test tube. The test tube was vortexed for 1 min, left at room temperature for 10 min and centrifuged at 3000× g and 4 °C for 5 min. The n-octanol layer (2 mL) was transferred into a new test tube followed by adding 1 mL of new n-octanol and 3 mL of phosphate buffer. The radioactivity of each 1 mL layer, n-octanol and phosphate buffer was measured using an auto well gamma counter (n = 4). The log P value was calculated by the logarithm of the ratio of radioactivity per milliliter (cpm/mL) in n-octanol to that in phosphate buffer and represents mean ± SD.

[3] = system: H3255 tumor; assay: Biodistribution in tumor-bearing mice, H3255 tumor; type: in vivo, mouse
Method: (§1) Male ddY mice (27–30 g, 6 weeks old) and female BALB/c nu/nu mice (12–17 g, 4 weeks old) were purchased from Japan SLC Inc. (Hamamatsu, Japan). The mice were housed in a cage with free access to food and water maintained at a constant temperature (23–25 °C) with a 12 h light/dark cycle. […] The tumor reached palpable size 2- and 3-weeks post-inoculation. Animal experiments were conducted in accordance with laboratory guidelines for the care and use of animals of Kanazawa University. The animal handling protocol was approved by the Kanazawa University Animal Care Committee (approval number: AP-163766). 3.10. Biodistribution Studies Mice were injected intravenously via the lateral tail vein with a saline solution of [^125I]10 (25 kBq, 100 μL) containing 1% tween-80 and 10% ethanol. The ddY mice were sacrificed at 10 min, 1, 4 and 24 h; meanwhile, the tumor-bearing mice were sacrificed at 1 and 4 h post injection. The selected tissues and organs were collected and weighed and their radioactivity was measured using an auto well gamma counter. […] The mice were sacrificed 1 h after the administration of radiotracer. The biodistribution data are expressed as percent injected dose per gram of tissue (% ID/g) along with the SD.

[4] = Biodistribution in normal ddY mice; type: in vivo, mouse
Method: as §1

[5] = system: H1975 tumor; assay: Biodistribution in tumor-bearing mice, H1975 tumor; type: in vivo, mouse; conditions: for effect of CO-1686 pretreatment on accumulation in H1975 tumor: excess dose CO-1686 (30 mg/kg i.p.) 1 h prior
Method: as §1

[6] = system: H3255 cells (L858R active mutant EGFR); assay: Cellular uptake study, H3255; type: cell-based, human
Method: 3.8. Cellular Uptake Studies
Then, the cell culture was incubated in a serum-free medium containing [^125I]10 (3.7 kBq/well) for 4 h. The medium from each well was removed and the cells were washed with 1 mL of ice-cold PBS. Finally, all cell fractions were lysed twice with 0.5 mL of 1 M NaOH aqueous solution. The radioactivity of every fraction was determined by an auto well gamma counter. Total cell protein was determined using the Bicinchoninic Acid (BCA) Protein Assay Kit (Nacalai) protocol, which uses bovine serum albumin as a standard reference. […]. All data were expressed as percent dose per milligram of protein (% dose/mg protein) ± SD.

stability in plasma ([1]; 24 h incubation): purity decreased gradually
logP [2]: 1.84 ± 0.01
Biodistribution, H3255 tumor ([3]; Blocking (1 h), CO-1686 30 mg/kg i.p. 1 h prior): 1.47 (0.71) % ID/g tissue
Biodistribution, H3255 tumor ([3]; i.v., 1 h): 1.63 (0.23) % ID/g tissue
Biodistribution, H3255 tumor ([3]; i.v., 1 h, listed as [^125I]ICO1686): 1.63 ± 0.23 % ID/g tissue
Biodistribution, H3255 tumor ([3]; i.v., 4 h): 0.70 (0.13) % ID/g tissue
radiotracer excreted in feces ([4]; 24 h after injection): ~70%
Biodistribution, Blood ([4]; i.v., 10 min): 1.06 (0.19) % ID/g tissue
Biodistribution, Bone ([4]; i.v., 10 min): 1.16 (0.21) % ID/g tissue
Biodistribution, Brain ([4]; i.v., 10 min): 0.11 (0.02) % ID/g tissue
Biodistribution, Heart ([4]; i.v., 10 min): 3.11 (0.64) % ID/g tissue
Biodistribution, Kidney ([4]; i.v., 10 min): 7.48 (1.55) % ID/g tissue
Biodistribution, Large intestine ([4]; i.v., 10 min): 0.57 (0.04) % ID/g tissue
Biodistribution, Liver ([4]; i.v., 10 min): 26.69 (0.81) % ID/g tissue
Biodistribution, Lung ([4]; i.v., 10 min): 4.47 (1.39) % ID/g tissue
Biodistribution, Muscle ([4]; i.v., 10 min): 1.40 (0.16) % ID/g tissue
Biodistribution, Pancreas ([4]; i.v., 10 min): 1.93 (0.37) % ID/g tissue
Biodistribution, Small intestine ([4]; i.v., 10 min): 9.46 (2.19) % ID/g tissue
Biodistribution, Spleen ([4]; i.v., 10 min): 2.14 (0.50) % ID/g tissue
Biodistribution, Stomach ([4]; i.v., 10 min): 3.52 (2.70) % ID/organ
Biodistribution, Blood ([4]; i.v., 1 h): 0.49 (0.05) % ID/g tissue
Biodistribution, Bone ([4]; i.v., 1 h): 0.50 (0.22) % ID/g tissue
Biodistribution, Brain ([4]; i.v., 1 h): 0.05 (0.02) % ID/g tissue
Biodistribution, Heart ([4]; i.v., 1 h): 0.79 (0.13) % ID/g tissue
Biodistribution, Kidney ([4]; i.v., 1 h): 3.76 (0.40) % ID/g tissue
Biodistribution, Large intestine ([4]; i.v., 1 h): 0.53 (0.08) % ID/g tissue
Biodistribution, Liver ([4]; i.v., 1 h): 18.57 (2.72) % ID/g tissue
Biodistribution, Lung ([4]; i.v., 1 h): 1.33 (0.08) % ID/g tissue
Biodistribution, Muscle ([4]; i.v., 1 h): 0.44 (0.05) % ID/g tissue
Biodistribution, Pancreas ([4]; i.v., 1 h): 0.99 (0.26) % ID/g tissue
Biodistribution, Small intestine ([4]; i.v., 1 h): 23.96 (2.18) % ID/g tissue
Biodistribution, Spleen ([4]; i.v., 1 h): 0.90 (0.17) % ID/g tissue
Biodistribution, Stomach ([4]; i.v., 1 h): 5.10 (1.18) % ID/organ
Biodistribution, Blood ([4]; i.v., 4 h): 0.33 (0.07) % ID/g tissue
Biodistribution, Bone ([4]; i.v., 4 h): 0.29 (0.11) % ID/g tissue
Biodistribution, Brain ([4]; i.v., 4 h): 0.03 (0.01) % ID/g tissue
Biodistribution, Heart ([4]; i.v., 4 h): 0.35 (0.09) % ID/g tissue
Biodistribution, Kidney ([4]; i.v., 4 h): 2.37 (0.17) % ID/g tissue
Biodistribution, Liver ([4]; i.v., 4 h): 7.85 (0.92) % ID/g tissue
Biodistribution, Lung ([4]; i.v., 4 h): 0.86 (0.10) % ID/g tissue
Biodistribution, Muscle ([4]; i.v., 4 h): 0.13 (0.03) % ID/g tissue
Biodistribution, Pancreas ([4]; i.v., 4 h): 0.41 (0.03) % ID/g tissue
Biodistribution, Small intestine ([4]; i.v., 4 h): 9.81 (1.03) % ID/g tissue
Biodistribution, Spleen ([4]; i.v., 4 h): 0.58 (0.11) % ID/g tissue
Biodistribution, Stomach ([4]; i.v., 4 h): 1.38 (0.56) % ID/organ
Biodistribution, Blood ([4]; i.v., 24 h): 0.05 (0.01) % ID/g tissue
Biodistribution, Bone ([4]; i.v., 24 h): 0.07 (0.05) % ID/g tissue
Biodistribution, Brain ([4]; i.v., 24 h): 0.01 (0.01) % ID/g tissue
Biodistribution, Feces ([4]; i.v., 24 h): 69.9 % ID
Biodistribution, Heart ([4]; i.v., 24 h): 0.09 (0.05) % ID/g tissue
Biodistribution, Kidney ([4]; i.v., 24 h): 0.25 (0.01) % ID/g tissue
Biodistribution, Large intestine ([4]; i.v., 24 h): 0.34 (0.08) % ID/g tissue
Biodistribution, Liver ([4]; i.v., 24 h): 0.80 (0.10) % ID/g tissue
Biodistribution, Lung ([4]; i.v., 24 h): 0.26 (0.03) % ID/g tissue
Biodistribution, Muscle ([4]; i.v., 24 h): 0.04 (0.04) % ID/g tissue
Biodistribution, Pancreas ([4]; i.v., 24 h): 0.10 (0.11) % ID/g tissue
Biodistribution, Small intestine ([4]; i.v., 24 h): 0.10 (0.01) % ID/g tissue
Biodistribution, Spleen ([4]; i.v., 24 h): 0.08 (0.04) % ID/g tissue
Biodistribution, Stomach ([4]; i.v., 24 h): 0.08 (0.02) % ID/organ
Biodistribution, Urine ([4]; i.v., 24 h): 4.07 (0.83) % ID/g tissue
effect of CO-1686 pretreatment on accumulation in H1975 tumor [5]: not inhibited
effect of CO-1686 pretreatment on accumulation in H1975 tumor ([5]; listed as [^125I]ICO1686): not reduced
tumor/blood ratio ([5]; tumor-bearing mice): approximately 1
Biodistribution, H1975 tumor ([5]; tumor-bearing mice, Blocking (1 h), CO-1686 30 mg/kg i.p. 1 h prior): 1.65 (0.64) % ID/g tissue
Biodistribution, H1975 tumor ([5]; tumor-bearing mice, i.v., 1 h): 1.77 (0.43) % ID/g tissue
Biodistribution, H1975 tumor ([5]; tumor-bearing mice, i.v., 1 h, listed as [^125I]ICO1686): 1.77 ± 0.43 % ID/g tissue
Biodistribution, H1975 tumor ([5]; tumor-bearing mice, i.v., 4 h): 0.43 (0.08) % ID/g tissue
Compound: C=CC(=O)Nc1cc([125I])cc(Nc2nc(Nc3ccc(N4CCN(C(C)=O)CC4)cc3OC)ncc2C(F)(F)F)c1 [[^125I]10]
stability in plasma ([1]; until 1 h): slightly decomposed; also recorded: hardly decomposed
Biodistribution, Large intestine ([4]; i.v., 4 h): 53.44 ± 6.73 % ID/g tissue and 53.44 (6.73) % ID/g tissue
cell uptake ([6]; H3255, 4 h incubation): 33.52 % dose/mg protein
reduction of accumulation by gefitinib ([6]; H3255, gefitinib 100 µM): over 50%
